Measured values as given in US6632794B1, “Insulin-like growth factor agonist molecules” (Genentech, Inc., priority 1997, dated 2003).
Values joined by “and” are separate entries in the source; they are usually repeats but may differ in a detail not shown here. Equal values may be shown once. Positions of bridges follow the written chain, without caps; N, C: chain ends. Residues, ends and D or L forms follow the SMILES beside them.

Assays:
[1] = molecular target: T1, IGFBP-1 (Homo sapiens, UniProt P08833); test: IGF-blocking phage assay on IGFBP-1 coated plate; assay type: binding; settings: FIG. 28
T1 construct: biotin (chemical label, EZ-LINK NHS-SS-Biotin)
T1 sequence (P08833 26-259): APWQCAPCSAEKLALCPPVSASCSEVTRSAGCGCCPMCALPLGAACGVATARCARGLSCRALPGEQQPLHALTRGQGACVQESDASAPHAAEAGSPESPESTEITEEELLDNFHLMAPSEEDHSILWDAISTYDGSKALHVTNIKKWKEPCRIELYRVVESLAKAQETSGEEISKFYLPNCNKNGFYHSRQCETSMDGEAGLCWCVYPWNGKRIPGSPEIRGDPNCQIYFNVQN
Method: To distinguish among these possibilities, phage clones were tested for the ability to bind to IGFBP-1 or IGFBP-3 in the presence and absence of IGF-I.
IGFBP-1 or IGFBP-3 was coated directly onto MAXISORP™ plates as above. Phage from clonal cultures were mixed with IGF-I (100 nM final concentration), and incubated with the immobilized IGFBP for 1 hour at room temperature. The plates were then washed ten times, as above, and a solution of rabbit anti-phage antibody mixed with a goat-anti-rabbit conjugate of horse radish peroxidase was added. After an incubation of 1 hour at room temperature, the plates were developed with a chromogenic substrate, o-phenylenediamine (Sigma). The reaction was stopped with addition of ½ volume of 2.5 M H2SO4. Optical density at 490 nm was measured on a spectrophotometric plate reader.
These peptides are thus likely to occupy an overlapping site with the IGF-binding epitope on IGFBP-3. […] Additional peptide-phage clones were screened similarly, at a low concentration of phage, with and without IGF-I.

[2] = molecular target: T1, IGFBP-1; test: Biotin-BP plate (ELISA) assay, biotinylated IGFBP-1 binding to IGF-I; settings: for IC50: 20 nM biotinylated IGFBP-1, IGF-I coated plate, read-out: ELISA IC50, inhibition of IGF-I binding to IGFBP-1
Method: 1. Biotin-BP Assay (for IGFBP-1 Binders)
(§1) For inhibition of IGFBP-1 binding, IGFBP-1 (as well as IGFBP-3 as a control) were biotinylated as described above. MAXISORP™plates were coated and blocked as described above, using 2 μg/mL IGF-I. In a separate plate, serial dilutions of peptide were premixed with a constant concentration (20 nM) of biotinylated IGFBP-1. After 20 min. at room temperature, the mixture was added to the IGF-I plate. The peptide/IGFBP mix was then removed and the plate was washed ten times with PBS buffer containing 0.05% TWEEN-20™ surfactant. Bound biotin-IGFBP-1 was then detected using streptavidin-conjugated horse radish peroxidase, and a chromogenic substrate.
A second series of peptides made use of non-natural amino acids to probe whether other structural features such as an added methyl group at the alpha carbon, or an isomer (D-alanine) could affect peptide binding to IGFBP-1.
(§2) Substitutions at the N-terminus or C-terminus yielded affinity improvements. […] All of these peptides had similar or improved apparent affinity for IGFBP-1 as compared with bp1-01 and bp1-02 and are thus expected to increase the availability of IGF-I in an in vitro cell culture assay.

[3] = molecular target: T1, IGFBP-1; test: BIAcore kinetics on immobilized IGFBP-1; assay type: binding; settings: IGFBP-1 coupled to dextran chip
Description: The kinetics of bp1-01 peptide variants were examined in a BIAcore™ (BIAcore, Inc., Piscataway, N.J.) assay using IGFBP-1 covalently coupled via EDC/NHS (as described by the manufacturer) to a dextran chip. […] The latter implies a half-life for peptide dissociation from IGFBP-1 of approximately 28 sec. The association rate constant is moderately fast, consistent with the notion that the peptide may not undergo significant conformation change upon binding to IGFBP-1.

[4] = molecular target: T1, IGFBP-1; test: KIRA assay of IGF-I activity with IGF-I plus IGFBP-1 and peptide; assay type: cell-based; settings: for IC50: peptide plus IGF-I plus IGFBP-1, read-out: IC50 for blocking the inhibition of IGF-I activity by IGFBP-1 (KIRA)
Method: (§3) C. In Vitro Activation (KIRA)
(§4) The ability of several synthetic peptides to block IGF-I binding to IGFBPs and release functional IGF-I was tested in a KIRA assay of IGF-I activity, as described in Example 1. Cells were treated with IGF-I alone, peptide alone, peptide plus IGF-I, IGF-I plus binding protein (IGFBP-1 or IGFBP-3), or IGF-I plus binding protein (IGFBP-1 or IGFBP-3) and peptide.

[5] = molecular target: T1, IGFBP-1; test: BIAcore competition assay, IGFBP-1 binding to IGF-II; settings: bp1-01 Ala-scan variants by BIAcore
Method: (§5) Two series of synthetic peptide variants were generated to determine which side chains of the bp1-01 peptide might contribute directly to binding IGFBP-1. In the first series an alanine-scanning approach (Cunningham and Wells, Science, 244: 1081-1085 (1989)) was used to remove that portion of each side chain beyond the beta carbon. The contribution of these atoms to the free energy of binding of the peptide to IGFBP-1 was then assessed by measuring the potency (IC50) of the variant for inhibiting IGFBP-1 binding to IGF-I or IGF-II in a BIAcore™competition assay, analogous to that described for IGFBP-3 (see Example 7).

[6] = molecular target: T2, IGFBP-3 (Homo sapiens, UniProt P17936); test: KIRA assay of IGF-I activity with IGF-I plus IGFBP-3 and peptide; assay type: cell-based; settings: FIG. 37D
Method: as §3, §4
It is believed that this would drop to 30 uM with a 1:1 ratio.

[7] = molecular target: T2, IGFBP-3; test: Biotin-BP plate assay, biotinylated IGFBP-3 binding to IGF-I (control); settings: FIG. 34
Method: as §1

[8] = molecular target: T1, IGFBP-1; test: BIAcore competition assay, IGFBP-1 binding to IGF-I; settings: bp1-01 Ala-scan variants by BIAcore; wt = bp1-01
Method: as §5, §2

[9] = molecular target: T2, IGFBP-3; test: BIAcore competition assay, IGFBP-3 binding to immobilized IGF-I; settings: bp3-01-ox variants by BIAcore; wt = bp3-01-ox
How it was run: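 IGFBP-3 (40 nM) was preincubated >1 h at room temperature with serial peptide dilutions, then injected at 20 μL/min over IGF-I immobilized on a dextran chip. The surface-plasmon-resonance response after injection gave the relative amount of free IGFBP-3 bound to IGF-I.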

[10] = molecular target: T3, recombinant human (rh) IGFBP-1 (Homo sapiens, UniProt P08833); test: ^125I-IGF-I competitive binding plate assay, IGFBP-1; settings: FIG. 36
T3 sequence (P08833 26-259): T1 sequence (P08833 26-259)
Method: (§6) The mutant (Leu^24,Ala^31)hIGF-I was also tested for its ability to displace radio-labeled rhIGF-I off the IGFBPs in a competitive binding assay. This assay involves coating recombinant human (rh) IGFBP-1 or rhIGFBP-3 (160 ng/ml) onto 96-well plates overnight, blocking the plates for one hour with 0.5% BSA, adding rhIGF-I (250-0.08 ng/ml) or (Leu^24,Ala^31)hIGF-I for 1 hour, then adding 20,000 cpm of ^125I-IGF-I and incubating for 2 hours before washing and counting.
(§7) As an additional assay of peptide activity, several peptides were tested in an assay using ^125I-labeled IGF-I to measure inhibition of IGFBP binding, as described in Example 1 (Assay 3). Serial dilutions of peptide were added to an IGFBP-1 or an IGFBP-3 plate. Thereafter, ^125I-labeled IGF-I was added and the plates were incubated for 2 hours. The plates were then washed and counted to determine the amount of bound IGF-I.

[11] = molecular target: T2, IGFBP-3; test: ^125I-IGF-I competitive binding plate assay, IGFBP-3; settings: FIG. 35
Method: as §6, §7

[12] = molecular target: T2, IGFBP-3; test: BIAcore competition assay, IGFBP-3 binding to immobilized IGF-II; settings: 20 nM IGFBP-3; approximately 1500 RU immobilized IGF-II; read-out: IC50, inhibition of IGFBP-3 binding to IGF-II (BIAcore)
Method: D. BIAcore™ Competition Assay (for IGFBP-3 Binders)
IGF-II was immobilized on a dextran chip for inhibition assays using a BIAcore™ 2000 surface-plasmon-resonance device (BIAcore, Inc., Piscataway, N.J.) to measure free binding protein. IGF-II was biotinylated as described above, and injected over a chip to which streptavidin had been coupled (BIAcore, Inc.) to give approximately 1500 RU of immobilized IGF-II. […] Serial dilutions of peptide were mixed with a constant concentration (20 nM) of IGFBP-3. After incubation for ≧1 hour at room temperature, an aliquot of 20 μl was injected at a flow rate of 20 μl/min over the IGF-II chip. Following the injection, a response reading was taken to measure the relative amount of IGFBP-3 bound to the IGF-II.

[13] = g8 bp1-01 selectants by ELISA plate assay, wt = bp1-01

T2 sequence (P17936 28-291): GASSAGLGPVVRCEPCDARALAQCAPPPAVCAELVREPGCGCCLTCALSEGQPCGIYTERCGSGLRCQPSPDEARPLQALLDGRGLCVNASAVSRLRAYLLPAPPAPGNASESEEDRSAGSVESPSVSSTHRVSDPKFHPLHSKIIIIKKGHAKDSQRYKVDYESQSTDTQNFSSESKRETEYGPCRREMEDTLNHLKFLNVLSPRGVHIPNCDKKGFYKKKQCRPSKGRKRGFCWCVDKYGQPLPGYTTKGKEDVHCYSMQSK

SEVGCRAGPLQWLCEKYF [HL-1]
inhibition of phage binding to IGFBP-1 by IGF-I in phage titration [1]: inhibited by IGF-I for binding to IGFBP-1 at some phage concentration

CC(C)C[C@@H]1NC(=O)[C@H](Cc2c[nH]c3ccccc23)NC(=O)[C@H](CCC(N)=O)NC(=O)[C@H](CC(C)C)NC(=O)[C@@H]2CCCN2C(=O)CNC(=O)[C@H](C)NC(=O)[C@H](CCCNC(=N)N)NC(=O)[C@@H](N)CSSC[C@@H](C(=O)N[C@@H](CCC(=O)O)C(=O)N[C@@H](CCCCN)C(=O)N[C@@H](Cc2ccc(O)cc2)C(=O)N[C@@H](Cc2ccccc2)C(=O)NCC(N)=O)NC1=O [bp1-01] (H-CRAGPLQWLCEKYFG-NH2; disulfide 1-10; N-terminus assumed)
IC50 [2]: ~180 nM and 180 nM | IGF-I Inhibition IC50 (mut)/IC50 (wt) ([2]; C-terminal bp1-01 variants by ELISA): 1 | IGF-I Inhibition IC50 (mut)/IC50 (wt) ([2]; bp1-01 non-natural variants by ELISA, a = D-alanine, aib = alpha-aminoisobutyrate): 1 | IGF-I Inhibition IC50 (mut)/IC50 (wt) [2, 13]: 1 | dissociation rate constant / dissociation kinetics [3]: too rapid to measure | IC50 [4]: 397 nM | IGF-II Inhibition IC50 (mut)/IC50 (wt) [5]: 1 | effect on IGF-I activity in KIRA with IGF-I plus IGFBP-3 [6]: Neither of these peptides showed activity | inhibition of biotinylated IGFBP-3 binding to IGF-I plate [7]: no inhibition | IGF-I Inhibition IC50 (mut)/IC50 (wt) [8]: 1

CSCC[C@H](NC(=O)[C@H](CC(N)=O)NC(=O)[C@@H]1CSSC[C@H](NC(=O)[C@@H](NC(=O)[C@H](CCC(=O)O)NC(=O)[C@H](CCC(=O)O)NC(=O)[C@@H](N)CO)C(C)C)C(=O)N[C@@H](Cc2c[nH]c3ccccc23)C(=O)N2CCC[C@H]2C(=O)N[C@@H](C(C)C)C(=O)N[C@@H](C)C(=O)N[C@@H](CCC(=O)O)C(=O)N[C@@H](Cc2c[nH]c3ccccc23)C(=O)N[C@@H](Cc2ccc(O)cc2)C(=O)N[C@@H](CC(C)C)C(=O)N1)C(=O)N[C@@H](Cc1c[nH]c2ccccc12)C(=O)NCC(=O)O [BP3-01-ox] (H-SEEVCWPVAEWYLCNMWG-OH; disulfide 5-14; N-terminus and C-terminus assumed)
IGF-I Inhibition IC50 (mut)/IC50 (wt) [9]: 1 | inhibition of ^125I-IGF-I binding to an IGFBP-1 coated plate [10]: did not inhibit | inhibition of biotinylated IGFBP-1 binding to IGF-I plate ([2]; FIG. 33): little or no inhibition | effect on IGF-I activity in KIRA with IGF-I plus IGFBP-1 ([4]; FIG. 37B): no significant effect | inhibition of ^125I-IGF-I binding to an IGFBP-3 plate [11]: inhibition | effect on IGF-I activity in KIRA with IGF-I plus IGFBP-3 [6]: no significant effect | IC50 [12]: 920 nM

CC(C)C[C@@H]1NC(=O)[C@H](Cc2c[nH]c3ccccc23)NC(=O)[C@H](CCC(N)=O)NC(=O)[C@H](CC(C)C)NC(=O)[C@@H]2CCCN2C(=O)CNC(=O)[C@H](C)NC(=O)[C@H](CCCNC(=N)N)NC(=O)[C@@H](NC(=O)CNC(=O)[C@@H](NC(=O)[C@H](CCC(=O)O)NC(=O)[C@@H](N)CO)C(C)C)CSSC[C@@H](C(=O)N[C@@H](CCC(=O)O)C(=O)N[C@@H](CCCCN)C(=O)N[C@@H](Cc2ccc(O)cc2)C(=O)N[C@@H](Cc2ccccc2)C(=O)NCC(N)=O)NC1=O [bp1-02] (H-SEVGCRAGPLQWLCEKYFG-NH2; disulfide 5-14; N-terminus assumed)
IC50 [2]: ~50 nM and 50 nM | IGF-I Inhibition IC50 (mut)/IC50 (wt) [2, 13]: 0.37 | kon ([3]; read-out: association rate constant): 230000 M⁻¹ s⁻¹ | koff ([3]; read-out: dissociation rate constant / dissociation kinetics): 0.0503 s⁻¹ | IC50 [4]: 187 nM | effect on IGF-I activity in KIRA with IGF-I plus IGFBP-3 [6]: Neither of these peptides showed activity | inhibition of biotinylated IGFBP-3 binding to IGF-I plate [7]: no inhibition
